Key:
Organ weight in mice = assay type: in vivo; conditions: LD-MTX 150 mg/kg; day 35
Description: (§1) At autopsy, tumors and internal organs including liver, spleen, kidneys were excised, weighed, and then fixed in 10% PBS-buffered formalin and maintained in 70% ethanol. For IHC, fixed tumors and organs were embedded in paraplast (Oxford Labware, St. Louis, Mo.), cut in 6 μm thick sections, and stained with hematoxylin and eosin (HE) for histopathological examination.

MG-63 cells [1] = assay: Cell cycle analysis (PI, FACS), MG-63; assay type: cell-based, human; conditions: alone at ED50 (50 nM)
Description: (§2) Cells were harvested and fixed with 70% ethanol at regular time intervals. Fixed cells were stained with propidium iodide (PI) for flow cytometry analysis using BD FACScan (BD Biosciences, San Jose, Calif.). Distribution of cell cycle was analyzed by ModFit LT V2.0 software (Verity Software House, Topsham, Me.). […] After 24, 48, and 72 hours of exposure, cells were harvested and stained with PI and fluorescein isothiocyanate (FITC) using Annexin V-FITC apoptosis detection kit (BD Biosciences) according to the manufacturer's protocol. Cells were subjected to flow cytometry analysis within one hour of staining.

Blood counts in mice = assay type: in vivo; conditions: LD-MTX 150 mg/kg; day 35
Description: (§4) Whole blood samples were obtained by submandibular bleeding and serum samples were harvested with serum separator tubes (BD Biosciences). Blood count and serum chemistry results were obtained by the Hemagen Analyst Benchtop Chemistry System (Hemagen Diagnostics, Inc. Columbia, Md.). Colony-forming cell (CFC) assays were performed as previously described (18).

Serum chemistry in mice = assay type: in vivo; conditions: LD-MTX 150 mg/kg; day 35
Description: as §4

MG-63 cells [2] = assay: Annexin V-FITC apoptosis assay, MG-63; assay type: cell-based, human; conditions: at ED50, 72 hours of exposure
Description: as §2

MG-63 cells [3] = assay: MTT assay, MG-63 (dose-response, pulse-exposure, combination); assay type: cell-based, human; conditions: Homo sapiens, MTT, 48 hours of exposure, read-out: ED50 (the source's name)
Description: 7 human OS cell lines (U2OS, G292, MG-63, HT-161, HOS, SAOS-2, and SJSA) were used in the study. Each cell line except HT-161 was obtained from the American Type Culture Collection (ATCC, Rockville, Md.). HT-161 was obtained from Dr. Emil Bogenmann (13). All cell lines were tested and authenticated prior to use according to cell line verification test recommendations by ATCC. OS cell lines were maintained in DMEM medium (Mediatech Inc., Herndon, Va.) supplemented with 10% fetal bovine serum (FBS; Atlanta Biological, Lawrenceville, Ga.) in a humidified incubator at 37° C. supplied with 5% CO2. Only the cells in exponential growth phase were used in the study.
Cell growth and survival were measured by 3-(4,5-dimethylthiazol-2-yl)-2,5-diphenyltetrazolium bromide (MTT) assay. […] After 48 hours of incubation, 10 μl of 5 mg/ml MTT solution (Sigma-Aldrich, St. Louis, Mo.) was added to each well and incubated further for 2 hours. […] For pulse-exposure experiments, MG-63 and SAOS-2 cells were seeded in 96-well plates and exposed to CuB at their ED50. After 2, 9, and 20 hours of exposure, cells were washed twice with PBS and incubated further in CuB-free media. Cell growth was checked by MTT assay at 24, 48, and 72 hours.
Calcusyn 2.0 (Biosoft, Ferguson, Mo.) was used for CI analysis.

human OS cells = conditions: LD-MTX alone; xenograft studies using murine models (refs 24, 37); cited from earlier work
MG-63 xenografts [4] = assay: Immunohistochemistry of xenografts (HE, Ki-67, TUNEL); assay type: in vivo, mice; conditions: LD-MTX 150 mg/kg; day 35
Description: as §1
For Ki-67 proliferation assay, tumor sections were deparaffinized with xylene and rehydrated through graded ethanol. Endogenous peroxidase activity was blocked with 3% hydrogen peroxide in methanol. […] After incubation, tumor sections were stained with diaminobenzidine (DAB) and counterstained with hematoxylin. Terminal deoxynucleotidyl transferase dUTP nick end labeling (TUNEL) apoptosis assay was performed using ApopTaq Plus Peroxidase In Situ Apoptosis Kit (Millipore) according to the manufacturer's protocol. Percent positive cells in representative microscopic fields were counted using ImageJ (17).

[5] = Body weight and side-effects during xenograft treatment; assay type: in vivo, mice; conditions: LD-MTX 150 mg/kg
Description: (§3) All animal experiments strictly followed the guidelines of Cedars-Sinai Medical Center and the National Institute of Health (NIH). Female nu/nu athymic nude mice (5-6 weeks old; average weight 21 g; specific pathogen-free) from Harlan Laboratories (Indianapolis, Ind.) were maintained in pathogen-free condition with sterilized chow and water. 5×10^6 cells of MG-63 cells were mixed with 200 μl of Matrigel solution (BD Biosciences) per injection, and the mixture was injected subcutaneously on the upper flanks of nude mice. After 24 hours, tumor size was measured, and any outliers were ruled out by one-way analysis of variance (ANOVA) test. […] The dose of LD-MTX was the murine equivalent of the human dose of LD-MTX. The conversion was made using dose translation formula by Reagan-Shaw et al., (15). […] Body weights were monitored every 2 days. Tumor size was measured every 2 days, and the tumor volume was calculated using the following formula: A (length)×B (width)×C (height)×0.5236 (16). The experiment was stopped at day 35, and all mice were sacrificed. The presence of metastatic spread was examined macroscopically at the time of autopsy followed by histological examination. At least two tumors from each group were snap-frozen in liquid nitrogen for Western blotting.

MG-63 xenografts [6] = assay: Growth of MG-63 xenografts in athymic nude mice; assay type: in vivo; conditions: LD-MTX 150 mg/kg, single agent
Description: as §3, with “The” for “The dose of LD-MTX was the murine equivalent of the human dose of LD-MTX. The”

[7] = test system: clonogenic hematopoietic cells; assay: Colony-forming cell (CFC) assays of bone marrow; conditions: LD-MTX 150 mg/kg; day 35; 2 × 10^4 cells/well
Description: as §4

CN(Cc1cnc2nc(N)nc(N)c2n1)c1ccc(C(=O)N[C@@H](CCC(=O)O)C(=O)O)cc1 [MTX, methotrexate, reference compound]
Kidney organ weight (Organ weight in mice): 345 ± 1 mg | Liver organ weight (Organ weight in mice): 1120 ± 21 mg | Spleen organ weight (Organ weight in mice): 135 ± 7 mg | earliest sign of S-phase arrest (MG-63 cells [1]): 48 h | Basophils (Blood counts in mice): 0.00 ± 0.00 K/μl | Eosinophils (Blood counts in mice): 0.00 ± 0.00 K/μl | Lymphocytes (Blood counts in mice): 4.05 ± 0.58 K/μl | Monocytes (Blood counts in mice): 0.17 ± 0.04 K/μl | Neutrophills (Blood counts in mice): 0.56 ± 0.42 K/μl | RBCs (Blood counts in mice): 7.69 ± 0.16 M/μl | WBCs (Blood counts in mice): 4.80 ± 0.99 K/μl | CK (Serum chemistry in mice): 183.0 ± 140 U/l | bilirubin (Serum chemistry in mice): 0.12 ± 0.00 mg/dL | cholesterol (Serum chemistry in mice): 148.5 ± 24.7 mg/dL | creatine (Serum chemistry in mice): 0.39 ± 0.21 mg/dL | globulin (Serum chemistry in mice): 1.3 ± 0.4 g/dL | total protein (Serum chemistry in mice): 4.6 ± 0.7 g/dL | uric acid (Serum chemistry in mice): 4.7 ± 0.8 mg/dL | apoptotic cells (MG-63 cells [2]): 30% | EC50 (MG-63 cells [3]): 50 nM | growth inhibition of human OS cells (human OS cells): < 20% | HE-stained tumors (MG-63 xenografts [4]): less number of blood vessels | mice with sluggish movements, occasional diarrhea, and a patchy skin rash [5]: 60% | body weight loss ([5]; some mice, 48 hours after MTX injection): 10% | tumor volume (MG-63 xenografts [6]): allowed the tumor volume to increase slightly from its original size | BFU-E, number of colonies [7]: 7.1 ± 0.8 | CFU-GEMM, number of colonies [7]: 3.4 ± 0.5 | CFU-GM, number of colonies [7]: 64.6 ± 3.6

From patent publication US20120238532A1, “TREATMENT OF HUMAN OSTEOSARCOMA” (CEDARS-SINAI MEDICAL CENTER, priority 2009, published 2012)
